Data published in EP0404115A1, “Bis(benzylpyrrolidine)Derivatives as dopamine agonists” (SYNTEX (U.S.A.) INC., priority 1989, dated 1990).
Like-named read-outs stand apart in the source and are kept apart here.

How the values were obtained:
[1] = cited from earlier work
DA₂ receptor = experiment: Goldberg femoral in vivo dog model (DA2 activity, intra-arterial)
Experimental: The compounds were subsequently tested following intra-arterial administration in an in situ renal and femoral arterial preparation in the dog, as developed by L.I. Goldberg, to test for DA1 and DA2 dopamine activity, respectively. Details of the methodology are provided in the European J. Pharmacol., 89:137, 1983, as well as in Hypertension, 6:1-25, 1984.
The compound was injected directly into the renal or femoral artery for analysis of DA₁ or DA₂ activity, respectively. […] The compound was tested for relative activity in comparison to the standard DA₁ agonist, dopamine or the standard DA₂ agonist, DPDA. Specific DA₁ or DA₂ activity of the tested compound was verified by Sch 23390 or domperidone blockade.
Adult mongrel dogs of either sex (11-20 kg) were anesthetized with pentobarbital sodium (33 mg/kg, i.v.). the animals were intubated and ventilated with room air using a Harvard respirator. […]
The optimal dose of compound was defined as that which produced a maximum increase in blood flow before causing a change in systemic blood pressure. Efficacy ratios were determined by division of the optimal response of the test compound by the optimal response of the standard agent. […] Potency ratios were the quotients calculated from the division of the standard agent ED₅₀ by the ED₅₀ of the test compound. […]

DA₁ receptor = experiment: Goldberg renal in vivo dog model (DA1 activity, intra-arterial); conditions: for Relative Efficacy to DA₁ Standard: optimal response divided by optimal response of dopamine
Experimental: The compounds were subsequently tested following intra-arterial administration in an in situ renal and femoral arterial preparation in the dog, as developed by L.I. […] Details of the methodology are provided in the European J. […] The compound was injected directly into the renal or femoral artery for analysis of DA₁ or DA₂ activity, respectively. […] Specific DA₁ or DA₂ activity of the tested compound was verified by Sch 23390 or domperidone blockade. Adult mongrel dogs of either sex (11-20 kg) were anesthetized with pentobarbital sodium (33 mg/kg, i.v.). the animals were intubated and ventilated with room air using a Harvard respirator. The abdominal aorta was catheterized with a Millar micro-tip (size: 5F) transducer via the right femoral artery for pressure monitoring. The right femoral vein was cannulated with PE-160 tubing for iv saline infusion, as well as, supplemental pentobarbital administration. The left renal artery was isolated through a lateral abdominal incision. An electromagnetic flowprobe of the appropriate size (9-12 mm circ) was placed around the artery and connected to a Carolina Medical electromagnetic flowmeter. Surface ECG leads were placed subcutaneously on the chest and limbs to monitor heart rate. A 25 gauge 3/4" needle bent 90°, 4 mm from the tip, was placed in the renal artery proximal to the probe and connected to an infusion pump delivering saline at a constant rate of 1 ml/min. […] Blood pressure was maintained by supplemental saline (10-20 ml/kg, iv). Bradykinin, a standard for nonspecific vasodilation, was given at 0.62 nmole doses, in 0.2 ml saline, i.a., prior to generating a dose response curve for dopamine in which 4-fold increase doses, ranging from 3 to 48 nmoles, were injected i.a. in 0.2 ml of saline. Test compound was injected similarly in 4-fold increasing doses up to a maximum of 3000 nmoles. […] The optimal dose of compound was defined as that which produced a maximum increase in blood flow before causing a change in systemic blood pressure. Efficacy ratios were determined by division of the optimal response of the test compound by the optimal response of the standard agent. ED₅₀ values were derived by regression analysis from individually generated dose response curves. Potency ratios were the quotients calculated from the division of the standard agent ED₅₀ by the ED₅₀ of the test compound.

[2] = system: spontaneously hypertensive rat (SHR); experiment: Diuretic activity in saline-loaded spontaneously hypertensive rat; type: in vivo
Experimental: Additionally, these compounds were examined for diuretic activity for 6 hours following oral compound administration in the saline-loaded spontaneously hypertensive rat (SHR). Methods for this assay have been previously described (Rosenkranz, et al, Proc. West. Pharmacol. Soc. 28:87, 1985). The diuretic and natriuretic effects elicited by these compounds were characterized by an immediate onset of action.
Male spontaneously hypertensive SHR/NCr1BR rats weighing 320-430 gms were divided into four groups of seven animals. All animals were food- and water-deprived overnight. The following morning, each group of rats was hydrated with deionized water (20 ml/kg, po) forty-five minutes prior to the administration of vehicle or the test compound (R₁ and R₂ = H; X = (CH₂)n, m = 6).
Following vehicle or drug, the rats were placed in individual metabolic units. Fifteen minutes post-dose the animals were saline-loaded (30 ml/kg, po). Urine was collected at 1, 3 and 6 hour intervals post-saline-load. Urine volumes were measured and sodium and potassium levels were determined by flame photometry.
A two-way analysis of variance with time, treatment and their interaction was run as a repeated measures analysis. A secondary model of one-way analysis of variance (by time) was run using specified contrasts. The p-values for the contrasts were adjusted using Fisher's LSD strategy at each time point.

[3] = system: spontaneously hypertensive rats; experiment: Oral antihypertensive activity in conscious restrained spontaneously hypertensive rat; type: in vivo
Experimental: The compounds of this invention were screened for oral antihypertensive activity in the conscious restrained rat. Adult male SHR were instrumented for blood pressure and heart rate measurements under light ether anesthesia. The animals were maintained on a plexiglass restraining board following surgery, and were allowed a 1 hour recovery period prior to the oral administration of the test compounds.
Male spontaneously hypertensive rats, SHR/NVr1Br (320-410 g) were fasted overnight. The following morning the left femoral artery and vein of each rat was cannulated under light ether anesthesia. following surgery, the rats were placed on a rat restraining board and allowed to recover from the effects of the ether for 1 hour. ECG leads were placed on the animal's chest to monitor heart reate. Animals were divided into groups of 4 and dosed with the test compound (R₁ and R₂ = H; X = (CH₂)m; m = 6).
Blood pressure and heart rate readings were taken at 5 minute intervals for the first 15 minutes and every 15 minutes thereafter for a duration of 4 hour post-compound administration. Data was evaluated by two-tailed paired t-tests.

Rats = experiment: 7-day toxicity in rats; type: in vivo; conditions: 30 and 100 mg/kg once a day for 7 days
Experimental: Rats were administered compound I (R₁ and R₂ = H; X = (CH₂)m; m = 6; R,R isomer) in doses of 30 and 100 mg/kg once a day for 7 days.

Cl.NCCc1ccc(O)c(O)c1 [DOPAMINE HYDROCHLORIDE, 3,4-Dihydroxyphenethylamine Hydrochlorid]
Solubility ([1]; in alcohol): soluble | Solubility ([1]; in chloroform and ether): practically insoluble | Solubility ([1]; in water): Freely soluble

CCCN(CCC)CCc1ccc(O)c(O)c1 [DPDA, di-propyl dopamine]
ED₅₀ (DA₂ receptor; femoral blood flow increase, injection into femoral artery, anesthetized dog): 1.00 nmol | Relative Efficacy to DA₂ Standard (DA₂ receptor; optimal response divided by optimal response of DPDA): 1.00

NCCc1ccc(O)c(O)c1 [Dopamine, 3-hydroxytyramine]
Relative Efficacy to DA₁ Standard (DA₁ receptor): 1.00

Oc1ccc(C[C@H]2CCCN2CCCCCCN2CCC[C@@H]2Cc2ccc(O)c(O)c2)cc1O [Test Compound, R,R-1,6-bis[2-(3,4-dihydroxybenzyl)pyrrolidin-1-yl]hexane]
Relative Potency to DA₁ Standard (DA₁ receptor; ED50 of dopamine divided by ED50 of test compound): 11.71 | Relative Efficacy to DA₁ Standard (DA₁ receptor): 1.05 | ED₅₀ (DA₁ receptor; renal blood flow increase, injection into renal artery, anesthetized dog, phenoxybenzamine pretreated): 0.63 nmol | urine and sodium retention ([2]; 3 mg/kg, po, urine at 1 hour, sodium at 1 and 3 hours): significant urine and sodium retention | diuresis and natriuresis ([2]; 10 mg/kg oral, one hour post administration): significant diuresis and natriuresis | diuresis and natriuresis ([2]; 30 mg/kg, 1, 3 and 6 hours post-dose): diuresis and natriuresis (p<0.05) were observed | kaliuresis ([2]; 30 mg/kg, po, 1 and 3 hour post-dose): significant kaliuresis | HR increase ([3]; 3 mg/kg): 6% | duration of HR increase ([3]; 3 mg/kg): 90 min | HR max. response ([3]; 10 mg/kg, decrease, p<0.05): -14% | duration of HR decrease ([3]; 10 mg/kg, post-compound administration): 1 h | HR change ([3]; 30 mg/kg): did not elicit any biologically significant changes in HR | MBP change ([3]; 3, 10 and 30 mg/kg): significant decrease in MBP | Peak decreases in MBP ([3]; across 3, 10 and 30 mg/kg): -17 to -22% | duration of action (MBP decrease) ([3]; across 3, 10 and 30 mg/kg): 15 to 210 min | treatment related changes in clinical condition, body weight, or food intake (Rats): No treatment related changes were noted
